Measurements published in patent US20150344540A1, “NOVEL GLP-1 RECEPTOR AGONISTS WITH CHOLESTEROL EFFLUX ACTIVITY” (NOVO NORDISK A/S, priority 2012, published 2015).
pEC50: −log10 of the molar value. Where a SMILES comes first, the peptide text is derived from it. [ ]: non-standard residue; d: D form. Aib = CC(C)(N)C(=O)O

test system: Mouse monocyte/macrophage cell line, RAW 264.7; test: Cholesterol efflux assay (3H-cholesterol, macrophage cell line); assay type: cell-based; details: RAW 264.7, 4 hrs incubation, 0.1% human serum albumin, ABCA1-mediated efflux

Row | Compound | 4 h Cholesterol Efflux Emax
1 | CC[C@H](C)[C@H](NC(=O)[C@H](Cc1ccccc1)NC(=O)[C@H](CCC(=O)O)NC(=O)[C@H](CCCNC(=N)N)NC(=O)[C@@H](NC(=O)[C@H](C)NC(=O)[C@H](CCC(=O)O)NC(=O)[C@H](CCC(=O)O)NC(=O)[C@H](CCC(=O)O)NC(=O)[C@H](CCSC)NC(=O)[C@H](CCC(N)=O)NC(=O)[C@H](CCCCN)NC(=O)[C@H](CO)NC(=O)[C@H](CC(C)C)NC(=O)[C@H](CC(=O)O)NC(=O)[C@H](CO)NC(=O)[C@@H](NC(=O)[C@H](Cc1ccccc1)NC(=O)[C@@H](NC(=O)CNC(=O)[C@H](CCC(=O)O)NC(=O)C(C)(C)NC(=O)[C@@H](N)Cc1c[nH]cn1)[C@@H](C)O)[C@@H](C)O)C(C)C)C(=O)N[C@@H](CCC(=O)O)C(=O)N[C@@H](Cc1c[nH]c2ccccc12)C(=O)N[C@@H](CC(C)C)C(=O)N[C@@H](CCCCN)C(=O)N[C@@H](CC(N)=O)C(=O)N[C@@H](CCCCN)C(=O)NC(C)(C)C(=O)N[C@@H](CC(C)C)C(=O)N[C@@H](CCC(=O)O)C(=O)N[C@@H](Cc1ccccc1)C(=O)N[C@@H](CC(C)C)C(=O)N[C@@H](C)C(=O)N[C@@H](CC(C)C)C(=O)N[C@@H](CC(C)C)C(N)=O [Compound 41, [Aib2,Glu21,Lys29,Aib30,Leu31,Glu32,Phe33,Leu34,Leu36,Leu371-Exendin-4-(1-37)-peptide amide] (H-H[Aib]EGTFTSDLSKQMEEEAVREFIEWLKNK[Aib]LEFLALL-NH2; N-terminus assumed) | 98%
2 | Ac-DWFKAFYDKVAEKFKEAF-NH2 (N-terminus and C-terminus assumed) [Compound L-4F, reference compound] | 108%
3 | CC[C@H](C)[C@H](NC(=O)[C@H](Cc1ccccc1)NC(=O)[C@H](CCC(=O)O)NC(=O)[C@H](CCCCN)NC(=O)[C@@H](NC(=O)[C@H](C)NC(=O)[C@H](Cc1c[nH]c2ccccc12)NC(=O)CNC(=O)[C@H](CCC(=O)O)NC(=O)[C@H](CC(C)C)NC(=O)[C@H](Cc1ccc(O)cc1)NC(=O)[C@H](CO)NC(=O)[C@H](CO)NC(=O)[C@@H](NC(=O)[C@H](CC(=O)O)NC(=O)[C@H](CO)NC(=O)[C@@H](NC(=O)[C@H](Cc1ccccc1)NC(=O)[C@@H](NC(=O)CNC(=O)[C@H](CCC(=O)O)NC(=O)C(C)(C)NC(=O)[C@@H](N)Cc1c[nH]cn1)[C@@H](C)O)[C@@H](C)O)C(C)C)C(C)C)C(=O)N[C@@H](C)C(=O)N[C@@H](Cc1c[nH]c2ccccc12)C(=O)N[C@@H](CC(C)C)C(=O)N[C@H](C(=O)N[C@@H](CCC(=O)O)C(=O)N[C@@H](CCCCN)C(=O)NC(C)(C)C(=O)N[C@@H](CCCCN)C(=O)N[C@@H](CCC(=O)O)C(=O)N[C@@H](Cc1ccccc1)C(=O)N[C@@H](CC(C)C)C(N)=O)C(C)C [Compound 21, [Aib8,Trp23,Val25,Glu34,Lys35,Aib36,Lys37]-GLP-1-(7-37)-peptidyl-Glu-Phe-Leu amide] (H-H[Aib]EGTFTSDVSSYLEGWAVKEFIAWLVEK[Aib]KEFL-NH2) | 70%
4 | CC[C@H](C)[C@H](NC(=O)[C@H](Cc1ccccc1)NC(=O)[C@H](CCC(=O)O)NC(=O)[C@H](CCCCN)NC(=O)[C@@H](NC(=O)[C@H](CCCCN)NC(=O)[C@H](CCC(=O)O)NC(=O)CNC(=O)[C@H](CCC(=O)O)NC(=O)[C@H](CC(C)C)NC(=O)[C@H](Cc1ccc(O)cc1)NC(=O)[C@H](CO)NC(=O)[C@H](CO)NC(=O)[C@@H](NC(=O)[C@H](CC(=O)O)NC(=O)[C@H](CO)NC(=O)[C@@H](NC(=O)[C@H](Cc1ccccc1)NC(=O)[C@@H](NC(=O)CNC(=O)[C@H](CCC(=O)O)NC(=O)C(C)(C)NC(=O)[C@@H](N)Cc1c[nH]cn1)[C@@H](C)O)[C@@H](C)O)C(C)C)C(C)C)C(=O)N[C@@H](C)C(=O)N[C@@H](Cc1c[nH]c2ccccc12)C(=O)N[C@@H](CC(C)C)C(=O)N[C@H](C(=O)N[C@@H](CCC(=O)O)C(=O)N[C@@H](CCCCN)C(=O)NC(C)(C)C(=O)N[C@@H](CCCCN)C(=O)N[C@@H](CCC(=O)O)C(=O)N[C@@H](Cc1ccccc1)C(=O)N[C@@H](CC(C)C)C(N)=O)C(C)C [Compound 60, [Aib8,Glu23,Lys24,Val25,Glu34,Lys35,Aib36,Lys37]-GLP-1-(7-37)-peptidyl-Glu-Phe-Leu amide] (H-H[Aib]EGTFTSDVSSYLEGEKVKEFIAWLVEK[Aib]KEFL-NH2) | 111%
5 | CC[C@H](C)[C@H](NC(=O)[C@H](Cc1ccccc1)NC(=O)[C@H](CCC(=O)O)NC(=O)[C@H](CCCCN)NC(=O)[C@@H](NC(=O)[C@H](CCCCN)NC(=O)[C@H](CCC(=O)O)NC(=O)CNC(=O)[C@H](CCC(=O)O)NC(=O)[C@H](CC(C)C)NC(=O)[C@H](Cc1ccc(O)cc1)NC(=O)[C@H](CO)NC(=O)[C@H](CO)NC(=O)[C@@H](NC(=O)[C@H](CC(=O)O)NC(=O)[C@H](CO)NC(=O)[C@@H](NC(=O)[C@H](Cc1ccccc1)NC(=O)[C@@H](NC(=O)CNC(=O)[C@H](CCC(=O)O)NC(=O)C(C)(C)NC(=O)[C@@H](N)Cc1c[nH]cn1)[C@@H](C)O)[C@@H](C)O)C(C)C)C(C)C)C(=O)N[C@@H](CCC(=O)O)C(=O)N[C@@H](Cc1c[nH]cn1)C(=O)N[C@@H](CC(C)C)C(=O)N[C@H](C(=O)N[C@@H](CCC(=O)O)C(=O)N[C@@H](CCCCN)C(=O)NC(C)(C)C(=O)N[C@@H](CCCCN)C(=O)N[C@@H](CCC(=O)O)C(=O)N[C@@H](Cc1ccccc1)C(=O)N[C@@H](CC(C)C)C(N)=O)C(C)C [Compound 71, [Aib8,Glu23,Lys24,Val25,Glu30,His31,Glu34,Lys35,Aib36,Lys37]-GLP-1-(7-37)-peptidyl-Glu-Phe-Leu amide] (H-H[Aib]EGTFTSDVSSYLEGEKVKEFIEHLVEK[Aib]KEFL-NH2) | 130%
6 | CC[C@H](C)[C@H](NC(=O)[C@H](Cc1ccccc1)NC(=O)[C@H](CCC(=O)O)NC(=O)[C@H](CCCCN)NC(=O)[C@@H](NC(=O)[C@H](C)NC(=O)[C@H](CCC(=O)O)NC(=O)CNC(=O)[C@H](CCC(=O)O)NC(=O)[C@H](CC(C)C)NC(=O)[C@H](Cc1ccc(O)cc1)NC(=O)[C@H](CO)NC(=O)[C@H](CO)NC(=O)[C@@H](NC(=O)[C@H](CC(=O)O)NC(=O)[C@H](CO)NC(=O)[C@@H](NC(=O)[C@H](Cc1ccccc1)NC(=O)[C@@H](NC(=O)CNC(=O)[C@H](CCC(=O)O)NC(=O)C(C)(C)NC(=O)[C@@H](N)Cc1c[nH]cn1)[C@@H](C)O)[C@@H](C)O)C(C)C)C(C)C)C(=O)N[C@@H](C)C(=O)N[C@@H](Cc1c[nH]c2ccccc12)C(=O)N[C@@H](CC(C)C)C(=O)N[C@H](C(=O)N[C@@H](CCC(=O)O)C(=O)N[C@@H](CCCCN)C(=O)NC(C)(C)C(=O)N[C@@H](CCCCN)C(=O)N[C@@H](CCC(=O)O)C(=O)N[C@@H](Cc1ccccc1)C(=O)N[C@@H](CC(C)C)C(=O)N[C@@H](CCC(=O)O)C(=O)O)C(C)C [Compound 100, [Aib8,Glu23,Val25,Glu34,Lys35,Aib36,Lys37]-GLP-1-(7-37)-peptidyl-Glu-Phe-Leu-Glu] | 104%
7 | H-HAEGTFTSDVSSYLEGEAVKEFIAWLVEKVKEHLEK-OH [Compound 125, [Glu23,Val25,Glu34,Lys35,Val36,Lys37]-GLP-1-(7-37)-peptidyl-Glu-His-Leu-Glu-Lys] | 111%
8 | CC[C@H](C)[C@H](NC(=O)[C@H](Cc1ccccc1)NC(=O)[C@H](CCC(=O)O)NC(=O)[C@H](CCCCN)NC(=O)[C@@H](NC(=O)[C@H](C)NC(=O)[C@H](CCC(=O)O)NC(=O)CNC(=O)[C@H](CCC(=O)O)NC(=O)[C@H](CC(C)C)NC(=O)[C@H](Cc1ccc(O)cc1)NC(=O)[C@H](CO)NC(=O)[C@H](CO)NC(=O)[C@@H](NC(=O)[C@H](CC(=O)O)NC(=O)[C@H](CO)NC(=O)[C@@H](NC(=O)[C@H](Cc1ccccc1)NC(=O)[C@@H](NC(=O)CNC(=O)[C@H](CCC(=O)O)NC(=O)C(C)(C)NC(=O)[C@@H](N)Cc1c[nH]cn1)[C@@H](C)O)[C@@H](C)O)C(C)C)C(C)C)C(=O)N[C@@H](C)C(=O)N[C@@H](Cc1c[nH]c2ccccc12)C(=O)N[C@@H](CC(C)C)C(=O)N[C@H](C(=O)N[C@@H](CCCCN)C(=O)N[C@@H](CCCCN)C(=O)NC(C)(C)C(=O)N[C@@H](CCCCN)C(=O)N[C@@H](CCC(=O)O)C(=O)N[C@@H](Cc1ccccc1)C(=O)N[C@@H](CC(C)C)C(N)=O)C(C)C [Compound 9, [Aib8,Glu23,Val25,Lys35,Aib36,Lys37]-GLP-1-(7-37)-peptidyl-Glu-Phe-Leu amide] (H-H[Aib]EGTFTSDVSSYLEGEAVKEFIAWLVKK[Aib]KEFL-NH2) | 87%
9 | CC[C@H](C)[C@H](NC(=O)[C@H](Cc1ccccc1)NC(=O)[C@H](CCC(=O)O)NC(=O)[C@H](CCCNC(=N)N)NC(=O)[C@@H](NC(=O)[C@H](C)NC(=O)[C@H](CCC(=O)O)NC(=O)[C@H](CCC(=O)O)NC(=O)[C@H](CCC(=O)O)NC(=O)[C@H](CCSC)NC(=O)[C@H](CCC(N)=O)NC(=O)[C@H](CCCCN)NC(=O)[C@H](CO)NC(=O)[C@H](CC(C)C)NC(=O)[C@H](CC(=O)O)NC(=O)[C@H](CO)NC(=O)[C@@H](NC(=O)[C@H](Cc1ccccc1)NC(=O)[C@@H](NC(=O)CNC(=O)[C@H](CCC(=O)O)NC(=O)C(C)(C)NC(=O)[C@@H](N)Cc1c[nH]cn1)[C@@H](C)O)[C@@H](C)O)C(C)C)C(=O)N[C@@H](CCC(=O)O)C(=O)N[C@@H](Cc1c[nH]c2ccccc12)C(=O)N[C@@H](CC(C)C)C(=O)N[C@@H](CCCCN)C(=O)N[C@@H](CC(N)=O)C(=O)N[C@@H](CCCCN)C(=O)NC(C)(C)C(=O)N[C@@H](CC(C)C)C(=O)N[C@@H](CO)C(=O)N[C@@H](Cc1ccccc1)C(=O)N[C@@H](CC(C)C)C(=O)N[C@@H](CCC(=O)O)C(=O)N[C@@H](CC(C)C)C(=O)N[C@@H](CC(C)C)C(N)=O [Compound 36, [Aib2,Glu21,Lys29,Aib30,Leu31,Phe33,Leu34,Glu35,Leu36,Leu371-Exendin-4-(1-37)-peptide amide] (H-H[Aib]EGTFTSDLSKQMEEEAVREFIEWLKNK[Aib]LSFLELL-NH2; N-terminus assumed) | 95%

same assay, conditions: read-out: 4 h Cholesterol Efflux EC50; RAW 264.7, 4 hrs incubation, 0.1% human serum albumin, ABCA1-mediated efflux (CPT-cAMP induced minus non-induced)

Row | Compound | pEC50
10 | CC[C@H](C)[C@H](NC(=O)[C@H](Cc1ccccc1)NC(=O)[C@H](CCC(=O)O)NC(=O)[C@H](CCCCN)NC(=O)[C@@H](NC(=O)[C@H](C)NC(=O)[C@H](CCC(=O)O)NC(=O)CNC(=O)[C@H](CCC(=O)O)NC(=O)[C@H](CC(C)C)NC(=O)[C@H](Cc1ccc(O)cc1)NC(=O)[C@H](CO)NC(=O)[C@H](CO)NC(=O)[C@@H](NC(=O)[C@H](CC(=O)O)NC(=O)[C@H](CO)NC(=O)[C@@H](NC(=O)[C@H](Cc1ccccc1)NC(=O)[C@@H](NC(=O)CNC(=O)[C@H](CCC(=O)O)NC(=O)C(C)(C)NC(=O)[C@@H](N)Cc1c[nH]cn1)[C@@H](C)O)[C@@H](C)O)C(C)C)C(C)C)C(=O)N[C@@H](C)C(=O)N[C@@H](Cc1c[nH]c2ccccc12)C(=O)N[C@@H](CC(C)C)C(=O)N[C@H](C(=O)N[C@@H](CCC(=O)O)C(=O)N[C@@H](CCCCN)C(=O)NC(C)(C)C(=O)N[C@@H](CCCCN)C(=O)N[C@@H](CCC(=O)O)C(=O)N[C@@H](Cc1ccccc1)C(=O)N[C@@H](CC(C)C)C(=O)N[C@@H](CCC(=O)O)C(=O)O)C(C)C [Compound 100, [Aib8,Glu23,Val25,Glu34,Lys35,Aib36,Lys37]-GLP-1-(7-37)-peptidyl-Glu-Phe-Leu-Glu] | 6.16
